Laboratory results: patent publication US10160755B2 (Plexxikon Inc., priority 2015, dated 2018)

What was measured:
FLT3-ITD = target: T1, FLT3-ITD (Homo sapiens, UniProt P36888); assay: FLT3-ITD biochemical kinase assay (AlphaScreen)
T1 construct: FLT3-ITD; Invitrogen #PV6190
T1 sequence (P36888 1-993): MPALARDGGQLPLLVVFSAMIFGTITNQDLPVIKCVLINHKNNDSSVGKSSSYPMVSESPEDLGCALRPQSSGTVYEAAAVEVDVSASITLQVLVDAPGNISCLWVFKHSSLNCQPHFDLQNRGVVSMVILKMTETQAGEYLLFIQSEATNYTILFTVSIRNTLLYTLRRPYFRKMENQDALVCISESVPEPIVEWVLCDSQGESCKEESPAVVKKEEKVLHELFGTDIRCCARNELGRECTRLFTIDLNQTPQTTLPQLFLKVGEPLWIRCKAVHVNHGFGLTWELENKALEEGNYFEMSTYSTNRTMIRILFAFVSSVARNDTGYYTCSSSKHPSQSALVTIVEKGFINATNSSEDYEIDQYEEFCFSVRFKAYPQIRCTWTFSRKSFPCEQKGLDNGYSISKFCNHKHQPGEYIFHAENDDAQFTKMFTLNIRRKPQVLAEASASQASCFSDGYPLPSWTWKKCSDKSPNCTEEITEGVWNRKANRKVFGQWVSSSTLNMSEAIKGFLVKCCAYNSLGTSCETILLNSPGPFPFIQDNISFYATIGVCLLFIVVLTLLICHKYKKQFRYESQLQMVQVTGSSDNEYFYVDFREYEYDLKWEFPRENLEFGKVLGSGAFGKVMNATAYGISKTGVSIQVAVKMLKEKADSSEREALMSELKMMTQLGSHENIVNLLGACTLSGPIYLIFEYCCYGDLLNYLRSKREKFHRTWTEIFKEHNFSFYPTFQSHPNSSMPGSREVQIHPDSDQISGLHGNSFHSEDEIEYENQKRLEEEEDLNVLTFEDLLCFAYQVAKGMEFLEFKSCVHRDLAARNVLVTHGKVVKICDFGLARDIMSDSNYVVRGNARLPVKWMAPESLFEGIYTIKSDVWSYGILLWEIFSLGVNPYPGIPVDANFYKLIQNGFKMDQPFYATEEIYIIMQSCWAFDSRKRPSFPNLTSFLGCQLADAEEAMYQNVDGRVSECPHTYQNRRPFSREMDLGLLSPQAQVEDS
In short: (§1)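 Recombinant enzyme phosphorylated biotin-poly(Glu4-Tyr) peptide (30 nM final); ATP final 10 μM for FLT3-D835Y, 100 μM for FLT3-ITD. AlphaScreen read-out: streptavidin donor and anti-phosphotyrosine (PY20) acceptor beads, 20 and 60 min at room temperature; inhibition seen as drop in 580 nm proximity signal; IC50 determined.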

FLT3-D835Y = target: T2, FLT3-D835Y (Homo sapiens, UniProt P36888, D835Y); assay: FLT3-D835Y biochemical kinase assay (AlphaScreen)
T2 construct: purchased Invitrogen PV3967
T2 sequence (P36888 27-993 D835Y): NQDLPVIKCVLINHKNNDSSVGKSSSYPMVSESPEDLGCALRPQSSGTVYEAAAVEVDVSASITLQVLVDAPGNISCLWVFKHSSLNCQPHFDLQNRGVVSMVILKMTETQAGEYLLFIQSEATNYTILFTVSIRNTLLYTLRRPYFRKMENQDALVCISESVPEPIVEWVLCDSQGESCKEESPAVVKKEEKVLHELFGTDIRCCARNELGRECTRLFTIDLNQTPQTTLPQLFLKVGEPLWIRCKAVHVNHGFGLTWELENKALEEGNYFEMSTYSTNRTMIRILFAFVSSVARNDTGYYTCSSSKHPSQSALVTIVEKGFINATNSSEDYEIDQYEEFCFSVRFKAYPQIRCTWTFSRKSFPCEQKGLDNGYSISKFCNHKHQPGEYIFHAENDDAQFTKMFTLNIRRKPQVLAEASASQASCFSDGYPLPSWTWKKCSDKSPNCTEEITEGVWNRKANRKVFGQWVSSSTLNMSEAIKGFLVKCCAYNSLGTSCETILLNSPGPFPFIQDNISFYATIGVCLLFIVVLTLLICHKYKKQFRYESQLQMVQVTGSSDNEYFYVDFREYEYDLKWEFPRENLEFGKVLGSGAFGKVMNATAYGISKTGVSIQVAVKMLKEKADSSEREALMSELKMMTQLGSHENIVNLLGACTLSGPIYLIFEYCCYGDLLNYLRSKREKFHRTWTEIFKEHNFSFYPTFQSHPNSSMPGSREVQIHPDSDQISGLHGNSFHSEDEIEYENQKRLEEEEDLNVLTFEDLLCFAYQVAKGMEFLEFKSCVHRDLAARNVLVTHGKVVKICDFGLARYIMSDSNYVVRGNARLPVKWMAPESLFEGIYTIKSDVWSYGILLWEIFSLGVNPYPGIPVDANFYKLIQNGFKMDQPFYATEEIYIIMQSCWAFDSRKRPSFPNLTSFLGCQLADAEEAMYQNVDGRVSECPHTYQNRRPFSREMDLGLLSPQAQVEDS
In short: as §1

c-Kit = c-Kit (Homo sapiens, UniProt P10721); assay: c-Kit biochemical assay (per US 2007/0032519)
Sequence of c-Kit (P10721 26-976): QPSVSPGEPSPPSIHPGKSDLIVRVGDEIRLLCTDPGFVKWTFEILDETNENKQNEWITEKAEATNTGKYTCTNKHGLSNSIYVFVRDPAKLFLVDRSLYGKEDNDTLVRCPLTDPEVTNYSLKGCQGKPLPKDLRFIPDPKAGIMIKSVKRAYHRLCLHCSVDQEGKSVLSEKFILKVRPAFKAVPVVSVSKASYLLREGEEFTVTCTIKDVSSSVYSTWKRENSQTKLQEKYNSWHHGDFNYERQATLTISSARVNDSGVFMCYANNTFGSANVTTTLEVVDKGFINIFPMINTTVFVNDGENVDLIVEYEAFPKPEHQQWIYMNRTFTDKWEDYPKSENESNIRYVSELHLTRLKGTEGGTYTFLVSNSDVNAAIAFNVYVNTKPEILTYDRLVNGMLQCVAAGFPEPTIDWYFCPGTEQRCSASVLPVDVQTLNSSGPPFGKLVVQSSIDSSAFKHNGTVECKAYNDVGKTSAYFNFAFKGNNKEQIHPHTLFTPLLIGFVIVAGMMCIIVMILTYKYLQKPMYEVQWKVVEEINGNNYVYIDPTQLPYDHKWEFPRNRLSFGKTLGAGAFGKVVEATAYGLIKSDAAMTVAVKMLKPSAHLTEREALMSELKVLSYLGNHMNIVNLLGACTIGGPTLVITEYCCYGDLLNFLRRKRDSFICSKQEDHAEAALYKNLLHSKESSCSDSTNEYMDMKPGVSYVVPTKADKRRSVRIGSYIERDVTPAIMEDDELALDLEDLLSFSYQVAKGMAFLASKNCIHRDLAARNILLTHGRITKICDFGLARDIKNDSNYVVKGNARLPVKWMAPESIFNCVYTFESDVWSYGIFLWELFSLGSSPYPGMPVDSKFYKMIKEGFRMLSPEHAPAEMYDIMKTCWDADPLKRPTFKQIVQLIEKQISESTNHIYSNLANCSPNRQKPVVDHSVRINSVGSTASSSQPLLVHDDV
Procedure: The following Table 2 provides data indicating FLT3 ITD, FLT3 D835Y, and KIT biochemical activity, and BaF3 FLT3 ITD/F69L cellular inhibitory activity for exemplary compounds described in this disclosure. In the table below, activity is provided as follows: +++=0.0001<IC50<1 μM; ++=1 μM<IC50<10 μM, +=10 μM<IC50<200 μM. Assays for the biochemical activity of c-Kit and FMS were conducted according to those assays described in US Patent Application Publication number US 2007/0032519, the disclosure of which is hereby incorporated by reference in its entirety.

SMILES: O=S(=O)(C1CC1)N1CC=C(c2cnc3[nH]cc(-c4ccc5[nH]cnc5c4)c3c2)CC1 [P-031, 3-(1H-benzimidazol-5-yl)-5-(1-cyclopropylsulfonyl-3,6-dihydro-2H-pyridin-4-yl)-1H-pyrrolo[2,3-b]pyridine]
- IC50 (FLT3-ITD): 0.0001 to 1 µM
- IC50 (FLT3-D835Y): 1 to 10 µM
- IC50 (c-Kit): 1 to 10 µM

SMILES: COc1cc(-c2cnc3[nH]cc(-c4ccc5ncn(C)c5c4)c3c2)ccc1Cl [P-092, 5-(4-chloro-3-methoxy-phenyl)-3-(3-methylbenzimidazol-5-yl)-1H-pyrrolo[2,3-b]pyridine]
- IC50 (FLT3-ITD): 0.0001 to 1 µM
- IC50 (FLT3-D835Y): 0.0001 to 1 µM
- IC50 (c-Kit): 0.0001 to 1 µM

SMILES: Cn1cnc2ccc(-c3c[nH]c4ncc(-c5cccc(C(F)(F)F)c5)cc34)cc21 [P-132, 1-methyl-6-[5-[3-(trifluoromethyl)phenyl]-1H-pyrrolo[2,3-b]pyridin-3-yl]benzimidazole]
- IC50 (FLT3-ITD): 0.0001 to 1 µM
- IC50 (FLT3-D835Y): 0.0001 to 1 µM
- IC50 (c-Kit): 10 to 200 µM

SMILES: CS(=O)(=O)Nc1cccc(-c2cnc3[nH]cc(-c4ccc5c(c4)OCO5)c3n2)c1 [P-058, N-[3-[7-(1,3-benzodioxol-5-yl)-5H-pyrrolo[2,3-b]pyrazin-2-yl]phenyl]methanesulfonamide]
- IC50 (FLT3-ITD): 0.0001 to 1 µM
- IC50 (FLT3-D835Y): 0.0001 to 1 µM
- IC50 (c-Kit): 10 to 200 µM

SMILES: COc1cnc2[nH]cc(-c3ccc4[nH]cnc4c3)c2c1 [P-002, 3-(1H-benzimidazol-5-yl)-5-methoxy-1H-pyrrolo[2,3-b]pyridine]
- IC50 (FLT3-ITD): 0.0001 to 1 µM
- IC50 (FLT3-D835Y): 0.0001 to 1 µM
- IC50 (c-Kit): 1 to 10 µM

SMILES: Cn1cnc2ccc(-c3c[nH]c4ncc(-c5cccc(C(=O)NC6CC6)c5)cc34)cc21 [P-090, N-cyclopropyl-3-[3-(3-methylbenzimidazol-5-yl)-1H-pyrrolo[2,3-b]pyridin-5-yl]benzamide]
- IC50 (FLT3-ITD): 0.0001 to 1 µM
- IC50 (FLT3-D835Y): 0.0001 to 1 µM
- IC50 (c-Kit): 10 to 200 µM

SMILES: O=C(C1CC1)N1CC=C(c2cnc3[nH]cc(-c4ccc5ncn(CC(F)(F)F)c5c4)c3n2)C1 [P-125, cyclopropyl-[3-[7-[3-(2,2,2-trifluoroethyl)benzimidazol-5-yl]-5H-pyrrolo[2,3-b]pyrazin-2-yl]-2,5-dihydropyrrol-1-yl]methanone]
- IC50 (FLT3-ITD): 0.0001 to 1 µM
- IC50 (FLT3-D835Y): 0.0001 to 1 µM
- IC50 (c-Kit): 1 to 10 µM

SMILES: COc1cnc2[nH]cc(-c3ccc4ncnc(OC)c4c3)c2c1 [P-043, 4-methoxy-6-(5-methoxy-1H-pyrrolo[2,3-b]pyridin-3-yl)quinazoline]
- IC50 (FLT3-ITD): 0.0001 to 1 µM
- IC50 (FLT3-D835Y): 0.0001 to 1 µM
- IC50 (c-Kit): 1 to 10 µM

SMILES: O=C(C1CC1)N1CCC=C(c2cnc3[nH]cc(-c4ccc5[nH]cnc5c4)c3c2)C1 [P-033, [5-[3-(1H-benzimidazol-5-yl)-1H-pyrrolo[2,3-b]pyridin-5-yl]-3,6-dihydro-2H-pyridin-1-yl]-cyclopropyl-methanone]
- IC50 (FLT3-ITD): 0.0001 to 1 µM
- IC50 (FLT3-D835Y): 1 to 10 µM
- IC50 (c-Kit): 10 to 200 µM

SMILES: COc1cnc2[nH]cc(-c3ccc4ncn(CC(F)(F)F)c4c3)c2c1 [P-047, 5-methoxy-3-[3-(2,2,2-trifluoroethyl)benzimidazol-5-yl]-1H-pyrrolo[2,3-b]pyridine]
- IC50 (FLT3-ITD): 0.0001 to 1 µM
- IC50 (FLT3-D835Y): 0.0001 to 1 µM
- IC50 (c-Kit): 1 to 10 µM

SMILES: c1nc2cc(-c3c[nH]c4ncc(-c5cnc(C6CC6)nc5)cc34)ccc2[nH]1 [P-027, 3-(1H-benzimidazol-5-yl)-5-(2-cyclopropylpyrimidin-5-yl)-1H-pyrrolo[2,3-b]pyridine]
- IC50 (FLT3-ITD): 0.0001 to 1 µM
- IC50 (FLT3-D835Y): 0.0001 to 1 µM
- IC50 (c-Kit): 0.0001 to 1 µM

SMILES: COc1cnc2[nH]cc(-c3ccc4ncn(C5CC5)c4c3)c2c1 [P-060, 1-cyclopropyl-6-(5-methoxy-1H-pyrrolo[2,3-b]pyridin-3-yl)benzimidazole]
- IC50 (FLT3-ITD): 0.0001 to 1 µM
- IC50 (FLT3-D835Y): 0.0001 to 1 µM
- IC50 (c-Kit): 10 to 200 µM

SMILES: COc1cnc2[nH]cc(-c3ccc4ncn(C5CCCC5)c4c3)c2c1 [P-049, 1-cyclopentyl-6-(5-methoxy-1H-pyrrolo[2,3-b]pyridin-3-yl)benzimidazole]
- IC50 (FLT3-ITD): 0.0001 to 1 µM
- IC50 (FLT3-D835Y): 0.0001 to 1 µM
- IC50 (c-Kit): 1 to 10 µM

SMILES: CS(=O)(=O)Nc1cccc(-c2cnc3[nH]cc(-c4ccc5ncn(C6CCCC6)c5c4)c3n2)c1 [P-070, N-[3-[7-(3-cyclopentylbenzimidazol-5-yl)-5H-pyrrolo[2,3-b]pyrazin-2-yl]phenyl]methanesulfonamide]
- IC50 (FLT3-ITD): 0.0001 to 1 µM
- IC50 (FLT3-D835Y): 0.0001 to 1 µM
- IC50 (c-Kit): 1 to 10 µM

SMILES: Cn1cnc2ccc(-c3c[nH]c4ncc(C5=CCN(C(=O)C6CC6)C5)cc34)cc21 [P-130, cyclopropyl-[3-[3-(3-methylbenzimidazol-5-yl)-1H-pyrrolo[2,3-b]pyridin-5-yl]-2,5-dihydropyrrol-1-yl]methanone]
- IC50 (FLT3-ITD): 0.0001 to 1 µM
- IC50 (FLT3-D835Y): 0.0001 to 1 µM
- IC50 (c-Kit): 10 to 200 µM

SMILES: Cc1nc2cc(-c3c[nH]c4ncccc34)ccc2[nH]1 [P-012, 2-methyl-5-(1H-pyrrolo[2,3-b]pyridin-3-yl)-1H-benzimidazole]
- IC50 (FLT3-ITD): 1 to 10 µM
- IC50 (FLT3-D835Y): 1 to 10 µM
- IC50 (c-Kit): 10 to 200 µM

SMILES: Cn1cnc2ccc(-c3c[nH]c4ncc(-c5cccc(NS(C)(=O)=O)c5)cc34)cc21 [P-037, N-[3-[3-(3-methylbenzimidazol-5-yl)-1H-pyrrolo[2,3-b]pyridin-5-yl]phenyl]methanesulfonamide]
- IC50 (FLT3-ITD): 0.0001 to 1 µM
- IC50 (FLT3-D835Y): 0.0001 to 1 µM
- IC50 (c-Kit): 10 to 200 µM

SMILES: O=S(=O)(C1CC1)N1CCC=C(c2cnc3[nH]cc(-c4ccc5[nH]cnc5c4)c3c2)C1 [P-032, 3-(1H-benzimidazol-5-yl)-5-(1-cyclopropylsulfonyl-3,6-dihydro-2H-pyridin-5-yl)-1H-pyrrolo[2,3-b]pyridine]
- IC50 (FLT3-ITD): 0.0001 to 1 µM
- IC50 (FLT3-D835Y): 1 to 10 µM
- IC50 (c-Kit): 10 to 200 µM

SMILES: CC(C)(C)n1cnc2ccc(-c3c[nH]c4ncc(-c5ccc(C(=O)O)nc5)nc34)cc21 [P-376, 5-[7-(3-tert-butylbenzimidazol-5-yl)-5H-pyrrolo[2,3-b]pyrazin-2-yl]pyridine-2-carboxylic acid]
- IC50 (FLT3-ITD): 0.0001 to 1 µM
- IC50 (FLT3-D835Y): 0.0001 to 1 µM
- IC50 (c-Kit): 0.0001 to 1 µM

SMILES: Cn1cnc2ccc(-c3c[nH]c4ncc(-c5ccc(NS(C)(=O)=O)cc5)nc34)cc21 [P-063, N-[4-[7-(3-methylbenzimidazol-5-yl)-5H-pyrrolo[2,3-b]pyrazin-2-yl]phenyl]methanesulfonamide]
- IC50 (FLT3-ITD): 0.0001 to 1 µM
- IC50 (FLT3-D835Y): 0.0001 to 1 µM
- IC50 (c-Kit): 1 to 10 µM

SMILES: CN1CCOc2ccc(-c3c[nH]c4ncc(-c5cccc(NS(C)(=O)=O)c5)nc34)cc21 [P-065, N-[3-[7-(4-methyl-2,3-dihydro-1,4-benzoxazin-6-yl)-5H-pyrrolo[2,3-b]pyrazin-2-yl]phenyl]methanesulfonamide]
- IC50 (FLT3-ITD): 0.0001 to 1 µM
- IC50 (FLT3-D835Y): 0.0001 to 1 µM
- IC50 (c-Kit): 10 to 200 µM
